The test system of this assay is houseflies. The assay is classed as in vivo, common houseflies. The note with it: 1 mm^3 acetonic solution to ventral abdomen under CO2 narcosis; kill rate after 4 hours. As for the experimental part: ADMINISTRATION TEST WITH COMMON HOUSEFLIES
1 mm^3 of the acetonic solution of the active ingredients is administered to the ventral abdomen of houseflies under CO2 narcosis. The kill rate on the insects thus treated is determined after 4 hours, from which the mortality curve is calculated.

The structures appear in SMILES notation.

Turning to `CCc1cc(CC)cc(OC(=O)NC)c1` [3,5-diethyl-phenyl-N-methylcarbamate], the LD50 is 0.12 /fly.
To `CNC(=O)Oc1cc(C)cc(C(C)C)c1` [Comparative substance II, 3-isopropyl-5-methyl-N-methylcarbamate] belongs 0.26 /fly; to `CNC(=O)Oc1cc(C)c(C)cc1Cl` [Comparative substance III, 3,4-dimethyl-6-chloro-N-methylcarbamate], 10.0 /fly.

These data come from patent publication US4028399A, “Carbamate” (priority 1969, dated 1977).
